# Reference: patent US6780875B2, “Quinoline-4-carboxamide derivatives as NK-3 and NK-2 receptor antagonists” (SmithKline Beecham S.p.A., priority 1998, dated 2004)
row,Structure (SMILES),melting point
1,"C[C@H](NC(=O)c1c(CN2CCOCC2)c(-c2ccccc2)nc2ccccc12)C1CCCCC1 [Example 54, 3-Morpholin-4-ylmethyl-2-phenyl-quinoline-4-carboxylic acid ((S)-1-cyclohexyl-ethyl)-amide]",178 to 180 °C
2,"CC[C@H](NC(=O)c1c(CN2CCC(N)CC2)c(-c2ccccc2)nc2ccccc12)c1ccccc1 [Example 55, 3-(4-Amino-piperidin-1-ylmethyl)-2-phenyl-quinoline-4-carboxylic acid ((S)-1-phenyl-propyl)-amide]",98 to 102 °C
3,"CC[C@H](NC(=O)c1c(CN2CCN(c3ccccn3)CC2)c(-c2ccccc2)nc2ccccc12)c1ccccc1 [Example 56, 2-Phenyl-3-(4-pyridin-2-yl-piperazin-1-ylmethyl)-quinoline-4-carboxylic acid ((S)-1-phenyl-propyl)-amide]",125 to 126 °C
4,"COCCN(CCOC)Cc1c(-c2ccccc2)nc2ccccc2c1C(=O)N[C@@H](C)C1CCCCC1 [Example 58, 3-{[Bis-(2-methoxy-ethyl)-amino]-methyl}-2-phenyl-quinoline-4-carboxylic acid ((S)-1-cyclohexyl-ethyl)-amide]",114 to 115 °C
5,"C[C@H](NC(=O)c1c(CN2CCN(c3ccccn3)CC2)c(-c2ccccc2)nc2ccccc12)C1CCCCC1 [Example 59, 2-Phenyl-3-(4-pyridin-2-yl-piperazin-1-ylmethyl)-quinoline-4-carboxylic acid ((S)-1-cyclohexyl-ethyl)-amide]",152 to 154 °C
6,"CC[C@H](NC(=O)c1c(CN2C[C@@H](C)N[C@@H](C)C2)c(-c2ccccc2)nc2ccccc12)c1ccccc1 [Example 60, 3-((3R,5S)-3,5-Dimethyl-piperazin-1-ylmethyl)-2-phenyl-quinoline-4-carboxylic acid ((S)-1-phenyl-propyl)-amide]",114 to 120 °C
7,"C[C@H](NC(=O)c1c(CN2CCC3(CC2)OCCO3)c(-c2ccccc2)nc2ccccc12)C1CCCCC1 [Example 61, 3-(1,4-Dioxa-8-aza-spiro[4.5]dec-8-ylmethyl)-2-phenyl-quinoline-4-carboxylic acid ((S)-1-cyclohexyl-ethyl)-amide]",184 to 185 °C
8,"CC[C@H](NC(=O)c1c(CN2CCC(N3CCN(C)CC3)CC2)c(-c2ccccc2)nc2ccccc12)c1ccccc1 [Example 62, 3-[4-(4-Methyl-piperazin-1-yl)-piperidin-1-ylmethyl]-2-phenyl-quinoline-4-carboxylic acid ((S)-1-phenyl-propyl)-amide]",85 to 100 °C
9,"CC[C@H](NC(=O)c1c(CN2CCC3(CC2)CNC(=O)C3)c(-c2ccccc2)nc2ccccc12)c1ccccc1 [Example 63, 3-(3-Oxo-2,8-diaza-spiro[4.5]dec-8-ylmethyl)-2-phenyl-quinoline-4-carboxylic acid ((S)-1-phenyl-propyl)-amide]",129 to 131 °C
10,"CC[C@H](NC(=O)c1c(CN2CCC(N3CCCCC3)CC2)c(-c2ccccc2)nc2c(Br)c(OC)ccc12)c1ccccc1 [Example 66, 3-[1,4′]Bipiperidinyl-1′-ylmethyl-8-bromo-7-methoxy-2-phenyl-quinoline-4-carboxylic acid ((S)-1-phenyl-propyl)-amide]",156 to 160 °C
11,"C[C@H](NC(=O)c1c(CN2CCN(c3c(N4CCCC4)c(=O)c3=O)CC2)c(-c2ccccc2)nc2ccccc12)C1CCCCC1 [Example 72, 3-[4-(3,4-Dioxo-2-pyrrolidin-1-yl-cyclobut-1-enyl)-piperazin-1-ylmethyl]-2-phenyl-quinoline-4-carboxylic acid ((S)-1-cyclohexyl-ethyl)-amide]",170 to 180 °C
12,"CNC(=NC#N)N1CCN(Cc2c(-c3ccccc3)nc3ccccc3c2C(=O)N[C@@H](C)C2CCCCC2)CC1 [Example 73, 3-[4-(-1-Cyanoimino-1-methylamino-methyl)-piperazin-1-ylmethyl]-2-phenyl-quinoline-4-carboxylic acid ((S)-1-cyclohexyl-ethyl)amide]",175 to 180 °C
13,"C[C@H](NC(=O)c1c(CN2CCN(C3=NCCS3)CC2)c(-c2ccccc2)nc2ccccc12)C1CCCCC1 [Example 74, 3-[4-(4,5-Dihydro-thiazol-2-yl)-piperazin-1-ylmethyl]-2-phenyl-quinoline-4-carboxylic acid ((S)-1-cyclohexyl-ethyl)-amide]",174 to 176 °C
14,"CNC(=S)N1CCN(Cc2c(-c3ccccc3)nc3ccccc3c2C(=O)N[C@@H](C)C2CCCCC2)CC1 [Example 75, 3-(4-Methylthiocarbamoyl-piperazin-1-ylmethyl)-2-phenyl-quinoline-4-carboxylic acid ((S)-1-cyclohexyl-ethyl)-amide]",204 to 206 °C
15,"C[C@H](NC(=O)c1c(CN2CCN(C(=NC#N)N3CCCC3)CC2)c(-c2ccccc2)nc2ccccc12)C1CCCCC1 [Example 76, 3-[4-(1-Cyanoimino-1-pyrrolidin-1-yl-methyl)-piperazin-1-ylmethyl]-2-phenyl-quinoline-4-carboxylic acid ((S)-1-cyclohexyl-ethyl)-amide]",154 to 155 °C
16,"CC[C@H](NC(=O)c1c(CN2CCC(N3CCNC3=O)CC2)c(-c2ccccc2)nc2ccccc12)c1ccccc1 [Example 77, 3-[4-(2-Oxo-imidazolidin-1-yl)-piperidin-1-ylmethyl]-2-phenyl-quinoline-4-carboxylic acid ((S)-1-phenyl-propyl)-amide]",240 to 242 °C
17,"CCN(CC)CCC(=O)N1CCN(Cc2c(-c3ccccc3)nc3ccccc3c2C(=O)N[C@H](c2ccccc2)C(C)C)CC1 [Example 80, 3-[4-(3-Diethylamino-propanoyl)-piperazin-1-ylmethyl]-2-phenyl-quinoline-4-carboxylic acid ((S)-2-methyl-1-phenyl-propyl)-amide]",120 to 125 °C
18,"C[C@H](NC(=O)c1c(CN2CCN(C(=C[N+](=O)[O-])N3CCCC3)CC2)c(-c2ccccc2)nc2ccccc12)C1CCCCC1 [Example 81, 3-[4-(2-Nitro-1-pyrrolidin-1-yl-vinyl)-piperazin-1-ylmethyl]-2-phenyl-quinoline-4-carboxylic acid ((S)-1-cyclohexyl-ethyl)-amide]",164 to 165 °C
19,"C[C@H](NC(=O)c1c(CN2CCN(C(=O)CCC(=O)O)CC2)c(-c2ccccc2)nc2ccccc12)C1CCCCC1 [Example 83, 4-{4-[4-((S)-1-Cyclohexyl-ethylcarbamoyl)-2-phenyl-quinolin-3-ylmethyl]-piperazin-1-yl}-4-oxo-butyric acid]",208 to 209 °C

# Now from value to compound:
row,melting point,Structure (SMILES)
1,130 to 140 °C,"C[C@H](NC(=O)c1c(CN2CCN(C(=NS(C)(=O)=O)N3CCCC3)CC2)c(-c2ccccc2)nc2ccccc12)C1CCCCC1 [Example 84, 3-[4-(1-Methanesulfonylimino-1-pyrrolidin-1-yl-methyl)-piperazin-1-ylmethyl]-2-phenyl-quinoline-4-carboxylic acid ((S)-1-cyclohexyl-ethyl)-amide]"
2,173 to 175 °C,"CC(C)[C@H](NC(=O)c1c(CN2CCN(C(=O)CCC(=O)O)CC2)c(-c2ccccc2)nc2ccccc12)c1ccccc1 [Example 85, 4-{4-[4-((S)-2-Methyl-1-phenyl-propylcarbamoyl)-2-phenyl-quinolin-3-ylmethyl]-piperazin-1-yl}-4-oxo-butyric acid]"
3,189 to 191 °C,"CC(C)[C@H](NC(=O)c1c(CN2CCN(C(=O)c3ccccc3C(=O)O)CC2)c(-c2ccccc2)nc2ccccc12)c1ccccc1 [Example 86, 2-(1-{4-[4-((S)-2-Methyl-1-phenyl-propylcarbamoyl)-2-phenyl-quinolin-3-ylmethyl]-piperazin-1-yl}-methanoyl)-benzoic acid]"
4,209 to 211 °C,"C[C@H](NC(=O)c1c(CN2CCN(C(=O)c3ccccc3C(=O)O)CC2)c(-c2ccccc2)nc2ccccc12)C1CCCCC1 [Example 87, 2-(1-{4-[4-((S)-1-Cyclohexyl-ethylcarbamoyl)-2-phenyl-quinolin-3-ylmethyl]-piperazin-1-yl}-methanoyl)-benzoic acid]"
5,139 to 144 °C (dec.),"COc1ccc2c(C(=O)N[C@@H](C)C3CCCCC3)c(CN3CCC(N4CCCCC4)CC3)c(-c3ccccc3)nc2c1 [Example 88, 3-[1,4′]Bipiperidinyl-1′-ylmethyl-7-methoxy-2-phenyl--quinoline-4-carboxylic acid ((S)-1-cyclohexyl-ethyl)-amide]"
6,209 to 216 °C (dec.),"CC[C@H](NC(=O)c1c(CN2CCC(N3CCCCC3)CC2)c(-c2ccccc2)nc2c(Cl)c(O)ccc12)c1ccccc1 [Example 89, 3-[1,4′]Bipiperidinyl-1′-ylmethyl-8-chloro-7-hydroxy-2-phenyl-quinoline-4-carboxylic acid ((S)-1-phenyl-propyl)-amide]"
7,133 °C (dec.),"CC[C@H](NC(=O)c1c(CN2CCN(S(N)(=O)=O)CC2)c(-c2ccccc2)nc2ccccc12)c1ccccc1 [Example 90, 2-Phenyl-3-(4-sulfamoyl-piperazin-1-ylmethyl)-quinoline-4-carboxylic acid ((S)-1-phenyl-propyl)-amide]"
8,107 to 111 °C (dec.),"CC[C@H](NC(=O)c1c(CN2CCN(S(=O)(=O)N(C)C)CC2)c(-c2ccccc2)nc2ccccc12)c1ccccc1 [Example 91, 3-(4-Dimethylsulfamoyl-piperazin-1-ylmethyl)-2-phenyl-quinoline-4-carboxylic acid ((S)-1-phenyl-propyl)-amide]"
9,188 to 195 °C,"C[C@H](NC(=O)c1c(CN2CCN(CC(=O)O)CC2)c(-c2ccccc2)nc2ccccc12)C1CCCCC1 [Example 92, {4-[4-((S)-1-Cyclohexyl-ethylcarbamoyl)-2-phenyl-quinolin-3-ylmethyl]-piperazin-1-yl}-acetic acid]"
10,158 to 162 °C,"CC[C@H](NC(=O)c1c(CN2CCC(N3CCCCC3)CC2)c(-c2ccccc2)nc2cc(O)ccc12)c1ccccc1 [Example 95, 3-[1,4′]Bipiperidinyl-1′-ylmethyl-7-hydroxy-2-phenyl-quinoline-4-carboxylic acid ((S)-1-phenyl-propyl)-amide]"
